Columns and labels:
skin of human volunteers [1] = assay: Visual observation of vasodilation (blushing) after topical application of lotion to forearm; assay type: in vivo; settings: for Vasodilation at 0.1%: 0.1% in skin lotion; for Vasodilation at 0.1% / Vasodilation at 1.0%: anterior forearm, visual blushing; for Vasodilation at 1.0%: 1.0% in skin lotion
Experimental: This example details the first of two sets of experiments designed to determine the vasodilation effect of alkyl niacin esters. Formulations were prepared by combining the alkyl esters referred to supra in a skin lotion, at 0.1% and 1.0% concentrations. The lotions were applied topically to the skin of human volunteers on the anterior surface of a forearm. Vasodilation was observed visually, i.e., by observing blushing at the site of application, or lack thereof. Both onset and duration of vasodilation were measured.

skin of human volunteers [2] = assay: Skin oxygen / CO2 content by transcutaneous monitor after topical application; assay type: in vivo
Experimental: To examine this issue, the oxygen content of skin to which the octyl ester discussed supra was determined directly, using a transcutaneous oxygen monitor. The 1% formulation of the octyl ester was applied to skin for 30 minutes. After this thirty minute period, the skin was cleaned with soap and water, wiped with an alcohol swab, and a drop of deionized water was placed on the sensor surface before its attachment to the anterior surface of the volunteers' forearms. The transcutaneous values were recorded constantly, and stored by the instrument. The monitor measures relative oxygen content, because the temperature at which the monitor operates does impact the oxygen permeability of the stratum corneum. See, e.g., Martin, Resp. […] The sensor was calibrated at 4 hour intervals, or whenever the sensor temperature was changed.
The monitor was operated at a temperature of 40° C. Values are given for both a control, and the formulation described herein.
In a follow-up experiment, the monitor was operated at 38° C., and both O2 and CO2 were measured, with a combined transcutaneous oxygen and CO2 monitor. […] The control is represented by the dotted line.
Parallel experiments were carried out using 0.1% octyl niacin ester lotion, and a lotion containing octyl niacin ester (0.1%), and 0.1% butyl benzoate.
Oxygen content was measured in the same way as is described, supra, or using other techniques known to the art.

[3] = monitor at 38° C., versus control, FIG. 3

COC(=O)c1cccnc1 [1 carbon]
Vasodilation at 0.1% (skin of human volunteers [1]): Yes | Vasodilation at 1.0% (skin of human volunteers [1]): Yes

CCOC(=O)c1cccnc1 [2 carbons, Ethyl niacin]
Vasodilation at 0.1% (skin of human volunteers [1]): Yes | Vasodilation Effect at 0.1%: Onset (skin of human volunteers [1]; 0.1% lotion, visual determination): 5 to 10 min | Vasodilation at 1.0% (skin of human volunteers [1]): Yes

CCCCOC(=O)c1cccnc1 [4 carbons]
Vasodilation at 0.1% (skin of human volunteers [1]): Yes | Vasodilation at 1.0% (skin of human volunteers [1]): Yes

CCCCCCOC(=O)c1cccnc1 [6 carbons, Hexyl niacin]
Vasodilation at 0.1% (skin of human volunteers [1]): Yes | Vasodilation at 1.0% (skin of human volunteers [1]): Yes

CCCCCCCCOC(=O)c1cccnc1 [8 carbons, Octyl niacin]
Vasodilation at 0.1% (skin of human volunteers [1]): Yes | Vasodilation Effect at 0.1%: Duration (skin of human volunteers [1]; 0.1% lotion, visual determination, listed as C8): longest effect | Vasodilation at 1.0% (skin of human volunteers [1]): Yes | Skin oxygen content (transcutaneous oxygen monitor) (skin of human volunteers [2]; 1% formulation applied 30 minutes, monitor at 40° C., versus control, FIG. 2): sustained increase in skin oxygen | Skin CO2 content (combined transcutaneous oxygen and CO2 monitor) (skin of human volunteers [2]; [3]): decrease in CO2 content | Skin oxygen content (combined transcutaneous oxygen and CO2 monitor) (skin of human volunteers [2]; [3]): sustained increase in skin oxygen content

CCCCCCCCCOC(=O)c1cccnc1 [9 carbons]
Vasodilation at 0.1% (skin of human volunteers [1]): No | Vasodilation at 1.0% (skin of human volunteers [1]): Yes | Vasodilation at 1.0% (skin of human volunteers [1]; listed as C9): caused vasodilation

CCCCCCCCCCOC(=O)c1cccnc1 [10 carbons]
Vasodilation at 0.1% (skin of human volunteers [1]): No | Vasodilation at 1.0% (skin of human volunteers [1]): Yes | Vasodilation at 1.0% (skin of human volunteers [1]; listed as C10): caused vasodilation

CCCCCCCCCCCOC(=O)c1cccnc1 [11 carbons]
Vasodilation at 0.1% (skin of human volunteers [1]): No | Vasodilation at 1.0% (skin of human volunteers [1]): Slight

CCCCCCCCCCCCOC(=O)c1cccnc1 [12 carbons]
Vasodilation at 0.1% (skin of human volunteers [1]): No | Vasodilation at 1.0% (skin of human volunteers [1]): No

CCCCCCCCCCCCCOC(=O)c1cccnc1 [13 carbons]
Vasodilation at 0.1% (skin of human volunteers [1]): No | Vasodilation at 1.0% (skin of human volunteers [1]): No

CCCCCCCCCCCCCCOC(=O)c1cccnc1 [14 carbons]
Vasodilation at 0.1% (skin of human volunteers [1]): No | Vasodilation at 1.0% (skin of human volunteers [1]): No

CCCCCCCCCCCCCCCOC(=O)c1cccnc1 [15 carbons]
Vasodilation at 0.1% (skin of human volunteers [1]): No | Vasodilation at 1.0% (skin of human volunteers [1]): No

CCCCCCCCCCCCCCCCOC(=O)c1cccnc1 [16 carbons]
Vasodilation at 0.1% (skin of human volunteers [1]): No | Vasodilation at 1.0% (skin of human volunteers [1]): No

CCCCCCCCCCCCCCCCCCOC(=O)c1cccnc1 [18 carbons]
Vasodilation at 0.1% (skin of human volunteers [1]): No | Vasodilation at 1.0% (skin of human volunteers [1]): No

CCCCOC(=O)c1ccccc1 [Butyl benzoate, reference compound]
Effect on the increase in skin oxygen content caused by octyl niacin ester (skin of human volunteers [2]; lotion with 0.1% octyl niacin ester plus 0.1% butyl benzoate versus 0.1% octyl niacin ester lotion alone, FIG. 4): blocked the increase in oxygen content

— US6924299B2, “Methods and compositions useful in enhancing oxygen delivery to cells” (University of Kentucky Research Foundation, priority 2000, dated 2005)
